# Results as given in ChEMBL document CHEMBL6103618, “Discovery of Novel Oxazolo[4,3-f]purine Derivatives as Antitumor Agents through PPIA Interaction” (J Med Chem, 2025).
# Activity calls are given as the source filed them. The calls are words filed in the database; no cut-off is given here.
# Key:
# [1] = Acute toxicity in BALB/c mouse assessed as death rate at 180 mg/kg, ip measured for 14 days; type: organism-based; conditions: both, in vivo, time 14 day, read-out: Activity
# [2] = system: HCT-116; assay: Anti-migration activity in human HCT-116 cells harboring siNC at 1.2 uM incubated for 24 hrs by wound healing assay; type: functional, cell-based
# [3] = system: CT26; assay: Antiproliferative activity against mouse CT26 cells assessed as inhibition of cell viability incubated for 48 hrs by CCK8 assay; type: functional, cell-based; conditions: CT26, 48 h
# [4] = system: HCT-116; assay: Induction of ER stress in human HCT-116 cells assessed as increase in ATF4 level at 0.3 to 1.2 uM by Western blot analysis; type: functional, cell-based; conditions: dose 0.3-1.2 µM
# [5] = Toxicity in BALB/c mouse implanted with mouse CT26 cells assessed as injury in spleen at 15 to 45 mg/kg, ip qd treated for 14 days by H and E staining based analysis; type: organism-based; conditions: in vivo, 336 h, dose 15-45 mg/kg, time 14 day
# [6] = Toxicity in BALB/c mouse implanted with mouse CT26 cells assessed as injury in heart at 15 to 45 mg/kg, ip qd treated for 14 days by H and E staining based analysis; type: organism-based; conditions: in vivo, 336 h, dose 15-45 mg/kg, time 14 day
# [7] = system: HCT-116; assay: Induction of apoptosis in human HCT-116 cells assessed as necrotic cells at 0.3 uM incubated for 48 hrs by Annexin V-FITC/PI staining based flow cytometry (reference value: 1.15 %); type: functional
# [8] = system: HCT-116; assay: Induction of intracellular ROS generation in human HCT-116 cells harboring siPPIA-3 at 1.2 uM by flow cytometry (reference value: 15.4 %); type: functional
# [9] = system: HepG2; assay: Antiproliferative activity against human HepG2 cells assessed as inhibition of cell viability incubated for 48 hrs by CCK8 assay; type: functional, cell-based; conditions: HepG2, 48 h
# [10] = system: HCT-116; assay: Inhibition of colony formation in human HCT-116 cells at 1.2 uM in presence of NAC by crystal violet staining based analysis; type: functional, cell-based
# [11] = system: HCT-116; assay: Induction of cell cycle arrest in human HCT-116 cells assessed as accumulation at S phase at 1.2 uM incubated for 48 hrs by PI staining based flow cytometry (reference value: 34.55 %); type: functional
# [12] = system: HCT-116; assay: Induction of apoptosis in human HCT-116 cells assessed as increase in p53 level at 1.2 uM in presence of NAC by Western blot analysis; type: functional, cell-based
# [13] = system: HCT-116; assay: Induction of apoptosis in human HCT-116 cells at 1.2 uM in presence of NAC by Annexin V-FITC/PI staining based flow cytometry; type: functional, cell-based
# [14] = system: HCT-116; assay: Induction of apoptosis in human HCT-116 cells harboring siPPIA-3 assessed as early apoptotic cells at 1.2 uM by Annexin V-FITC/PI staining based flow cytometry (reference value: 7.82 %); type: functional
# [15] = system: HCT-116; assay: Induction of cell cycle arrest in human HCT-116 cells assessed as accumulation at G2 phase at 0.3 uM incubated for 48 hrs by PI staining based flow cytometry (reference value: 6.08 %); type: functional
# [16] = system: HCT-116; assay: Effect on SET expression in human HCT-116 cells upto 6 uM incubated for 30 mins followed by pronase addition measured after 30 mins by DARTS assay; type: functional, cell-based
# [17] = system: HCT-116; assay: Anti-invasion activity in human HCT-116 cells incubated for 24 hrs by transwell assay; type: functional, cell-based; conditions: dose 0.3-1.2 µM
# [18] = system: HCT-116; assay: Effect on SRSF7 expression in human HCT-116 cells upto 6 uM incubated for 30 mins followed by pronase addition measured after 30 mins by DARTS assay; type: functional, cell-based
# [19] = system: HCT-116; assay: Effect on COTL1 expression in human HCT-116 cells upto 6 uM incubated for 30 mins followed by pronase addition measured after 30 mins by DARTS assay; type: functional, cell-based
# [20] = Toxicity in BALB/c mouse implanted with mouse CT26 cells assessed as change in body weight at 15 to 45 mg/kg, ip qd treated for 14 days; type: organism-based; conditions: in vivo, 336 h, dose 15-45 mg/kg, time 14 day
# [21] = system: HCT-116; assay: Induction of DNA damage in human HCT-116 cells assessed as increase in orange fluorescence incubated for 48 hrs by AO staining based analysis; type: functional, cell-based; conditions: dose 0.3-1.2 µM
# [22] = system: CT26; assay: Antitumor activity against mouse CT26 cells implanted in BALB/c mouse assessed as reduction in tumor weight administered intraperitoneally once daily for 14 days; type: functional; conditions: dose 15-45 mg/kg, route ip, time 14.0 day
# [23] = system: HCT-116; assay: Induction of ER stress in human HCT-116 cells assessed as increase in CHOP level at 0.3 to 1.2 uM by Western blot analysis; type: functional, cell-based; conditions: dose 0.3-1.2 µM
# [24] = system: HCT-116; assay: Induction of apoptosis in human HCT-116 cells assessed as viable cells at 1.2 uM incubated for 48 hrs by Annexin V-FITC/PI staining based flow cytometry (reference value: 96.2 %); type: functional; conditions: read-out: Activity
# [25] = Acute toxicity in BALB/c mouse assessed as death rate at 350 mg/kg, ip measured for 14 days; type: organism-based; conditions: both, in vivo, time 14 day, read-out: Activity
# [26] = system: HCT-116; assay: Induction of intracellular ROS generation in human HCT-116 cells incubated for 48 hrs by DHE staining based analysis; type: functional, cell-based; conditions: dose 0.3-1.2 µM
# [27] = system: HCT-116; assay: Anti-proliferative activity against human HCT-116 cells harboring siNC assessed as decrease in p-p38 level at 1.2 uM by Western blot analysis; type: functional, cell-based
# [28] = Toxicity in BALB/c mouse implanted with mouse CT26 cells assessed as abnormality in heart at 15 to 45 mg/kg, ip qd treated for 14 days by H and E staining based analysis; type: organism-based; conditions: in vivo, 336 h, dose 15-45 mg/kg, time 14 day
# [29] = system: HCT-116; assay: Inhibition of colony formation in human HCT-116 cells incubated for 48 hrs followed by fresh media replacement without compound on every 72 hrs for 14 days by crystal violet staining based analysis; type: functional, cell-based; conditions: dose 0.3-1.2 µM
# [30] = target: Peptidyl-prolyl cis-trans isomerase A (Homo sapiens, UniProt P62937); assay: Binding affinity to PPIA in human HCT-116 cells assessed as protein stability incubated for 30 mins followed by pronase addition measured after 30 mins by DARTS assay; type: cell-based; conditions: dose <= 6.0 µM, time 60.0 min
# Sequence of Peptidyl-prolyl cis-trans isomerase A (P62937 whole entry, looked up): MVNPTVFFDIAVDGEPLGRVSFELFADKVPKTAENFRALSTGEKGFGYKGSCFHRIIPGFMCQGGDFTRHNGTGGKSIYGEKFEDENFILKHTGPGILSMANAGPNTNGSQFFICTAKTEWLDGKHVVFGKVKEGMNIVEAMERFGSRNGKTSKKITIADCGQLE
# [31] = system: HCT-116; assay: Induction of apoptosis in human HCT-116 cells assessed as early apoptotic cells at 0.6 uM incubated for 48 hrs by Annexin V-FITC/PI staining based flow cytometry (reference value: 1.12 %); type: functional
# [32] = system: HCT-116; assay: Induction of apoptosis in human HCT-116 cells assessed as increase in cleaved caspase-3 level at 0.3 to 1.2 uM incubated for 48 hrs by Western blot analysis; type: functional, cell-based; conditions: dose 0.3-1.2 µM
# [33] = system: HCT-116; assay: Anti-proliferative activity against human HCT-116 cells harboring siNC assessed as decrease in p-ERK1/2 level at 1.2 uM by Western blot analysis; type: functional, cell-based
# [34] = organism: Homo sapiens; assay: Disruption of PPIA/CD147 (unknown origin) interaction by Co-IP assay
# [35] = Toxicity in BALB/c mouse implanted with mouse CT26 cells assessed as abnormality in spleen at 15 to 45 mg/kg, ip qd treated for 14 days by H and E staining based analysis; type: organism-based; conditions: in vivo, 336 h, dose 15-45 mg/kg, time 14 day
# [36] = system: HCT-116; assay: Induction of apoptosis in human HCT-116 cells assessed as early apoptotic cells at 1.2 uM incubated for 48 hrs by Annexin V-FITC/PI staining based flow cytometry (reference value: 1.12 %); type: functional
# [37] = system: HCT-116; assay: Induction of apoptosis in human HCT-116 cells assessed as increase in Bax level at 0.3 to 1.2 uM incubated for 48 hrs by Western blot analysis; type: functional, cell-based; conditions: dose 0.3-1.2 µM
structure (smiles),measurement,setting,value
C=C(C(=O)OC)N1c2nc(Cl)nc(Cl)c2N2C(c3ccccc3F)OC(C(=O)OCC)(C(=O)OCC)C12 (racemic),mortality at 336 h,[1],0%
same,Activity,[2],Active
same,IC50,[3],0.86 µM
same,Activity,[4],Active
same,Activity,[5],Non-toxic
same,Activity,[6],Non-toxic
same,Activity,[7],1.8%
same,Activity,[8],16.8%
same,IC50,[9],2.16 µM
same,inhibition,[10],inactive
same,Activity,[11],28.16%
same,Activity,[12],inactive
same,Activity,[13],inactive
same,Activity,[14],8.6%
same,Activity,[15],6.26%
same,Activity,[16],No effect
same,Activity,[17],Dose-dependent-effect
same,Activity,[18],No effect
same,Activity,[19],No effect
same,Activity,[20],Non-toxic
same,Activity,[21],Dose-dependent-effect
same,Activity,[22],Dose-dependent-effect
same,Activity,[23],Active
same,viability at 1.2 µM,[24],68%
same,mortality at 336 h,[25],20%
same,Activity,[26],Dose-dependent-effect
same,Activity,[27],Active
same,Activity,[28],Non-toxic
same,inhibition,[29],Dose-dependent-effect
same,Activity,[30],Dose-dependent-effect
same,Activity,[31],14.8%
same,Activity,[32],Active
same,Activity,[33],Active
same,Activity,[34],Active
same,Activity,[35],Non-toxic
same,Activity,[36],21.3%
same,Activity,[37],Active
